Test [1] addresses T1, 5-hydroxytryptamine receptor 1A (Homo sapiens, UniProt P08908).
T1 sequence (P08908 whole entry): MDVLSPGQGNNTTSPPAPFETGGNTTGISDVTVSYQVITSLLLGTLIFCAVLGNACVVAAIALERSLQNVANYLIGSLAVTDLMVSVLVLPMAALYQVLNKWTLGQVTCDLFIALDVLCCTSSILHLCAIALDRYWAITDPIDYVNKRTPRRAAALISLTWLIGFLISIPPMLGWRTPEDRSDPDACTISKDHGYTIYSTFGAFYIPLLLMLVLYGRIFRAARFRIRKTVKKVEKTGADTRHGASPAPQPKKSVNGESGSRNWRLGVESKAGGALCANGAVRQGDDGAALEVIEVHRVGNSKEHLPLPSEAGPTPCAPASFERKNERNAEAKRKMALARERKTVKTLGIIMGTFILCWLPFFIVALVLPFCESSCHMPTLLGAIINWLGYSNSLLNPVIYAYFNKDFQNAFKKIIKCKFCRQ
The test is described as follows: PDSP Secondary Binding target: HTR1A - Compounds are tested at 10 uM concentration, plate are incubated at room temperature in the dark for 90 minutes. Reaction are stopped by vacuum filtration onto 0.3% polyethyleneimine soaked filter mats using Filtermate harvester. Scintillation cocktail is then melted onto microwave-dried filters on a hot plate and the radio activity is counted in Microbia counter.

The next test concerns the target Translocator protein (Homo sapiens, UniProt P30536). The test is described as follows: PDSP Secondary Binding target: TSPO - Compounds are tested at 10 uM concentration, plate are incubated at room temperature in the dark for 90 minutes. Reaction are stopped by vacuum filtration onto 0.3% polyethyleneimine soaked filter mats using Filtermate harvester. Scintillation cocktail is then melted onto microwave-dried filters on a hot plate and the radio activity is counted in Microbia counter.

In test [2] the target is T2, Muscarinic acetylcholine receptor M5 (Homo sapiens, UniProt P08912).
T2 sequence (P08912 whole entry): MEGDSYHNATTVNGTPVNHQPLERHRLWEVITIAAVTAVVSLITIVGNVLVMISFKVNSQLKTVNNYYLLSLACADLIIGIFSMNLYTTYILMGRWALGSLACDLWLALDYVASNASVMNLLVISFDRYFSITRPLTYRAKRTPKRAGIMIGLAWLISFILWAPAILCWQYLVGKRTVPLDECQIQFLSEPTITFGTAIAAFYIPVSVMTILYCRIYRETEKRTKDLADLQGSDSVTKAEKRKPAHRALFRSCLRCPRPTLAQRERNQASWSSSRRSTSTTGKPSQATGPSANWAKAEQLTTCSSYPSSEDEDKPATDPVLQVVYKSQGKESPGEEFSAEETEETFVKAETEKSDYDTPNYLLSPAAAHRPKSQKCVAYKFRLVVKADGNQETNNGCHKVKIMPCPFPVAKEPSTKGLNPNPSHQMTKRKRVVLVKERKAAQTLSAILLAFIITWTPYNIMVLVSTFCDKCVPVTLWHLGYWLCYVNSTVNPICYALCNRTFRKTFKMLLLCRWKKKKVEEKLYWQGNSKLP
The test is described as follows: PDSP Secondary Binding target: CHRM5 - Compounds are tested at 10 uM concentration, plate are incubated at room temperature in the dark for 90 minutes. Reaction are stopped by vacuum filtration onto 0.3% polyethyleneimine soaked filter mats using Filtermate harvester. Scintillation cocktail is then melted onto microwave-dried filters on a hot plate and the radio activity is counted in Microbia counter.

For test [3], the target named is Sodium-dependent noradrenaline transporter (Homo sapiens, UniProt P23975). The test is described as follows: PDSP Secondary Binding target: SLC6A2 - Compounds are tested at 10 uM concentration, plate are incubated at room temperature in the dark for 90 minutes. Reaction are stopped by vacuum filtration onto 0.3% polyethyleneimine soaked filter mats using Filtermate harvester. Scintillation cocktail is then melted onto microwave-dried filters on a hot plate and the radio activity is counted in Microbia counter.

The target of test [4] is T3, Alpha-2C adrenergic receptor (Homo sapiens, UniProt P18825).
T3 sequence (P18825 whole entry): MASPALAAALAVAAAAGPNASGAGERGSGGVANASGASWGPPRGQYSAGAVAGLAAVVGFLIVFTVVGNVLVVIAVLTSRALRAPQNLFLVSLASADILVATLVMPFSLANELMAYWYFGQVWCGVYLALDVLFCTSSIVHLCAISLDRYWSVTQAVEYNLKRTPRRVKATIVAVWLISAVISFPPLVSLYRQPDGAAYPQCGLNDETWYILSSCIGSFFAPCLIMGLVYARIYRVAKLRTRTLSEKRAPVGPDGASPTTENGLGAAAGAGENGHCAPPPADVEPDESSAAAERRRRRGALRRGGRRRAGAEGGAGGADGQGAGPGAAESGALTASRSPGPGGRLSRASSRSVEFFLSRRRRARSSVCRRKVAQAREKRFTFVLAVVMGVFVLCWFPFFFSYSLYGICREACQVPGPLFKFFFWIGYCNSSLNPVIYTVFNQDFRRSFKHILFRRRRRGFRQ
In words: PDSP Secondary Binding target: ADRA2C - Compounds are tested at 10 uM concentration, plate are incubated at room temperature in the dark for 90 minutes. Reaction are stopped by vacuum filtration onto 0.3% polyethyleneimine soaked filter mats using Filtermate harvester. Scintillation cocktail is then melted onto microwave-dried filters on a hot plate and the radio activity is counted in Microbia counter.

Test [5] deals with 5-hydroxytryptamine receptor 7 (Homo sapiens, UniProt P34969). In words: PDSP Secondary Binding target: HTR7 - Compounds are tested at 10 uM concentration, plate are incubated at room temperature in the dark for 90 minutes. Reaction are stopped by vacuum filtration onto 0.3% polyethyleneimine soaked filter mats using Filtermate harvester. Scintillation cocktail is then melted onto microwave-dried filters on a hot plate and the radio activity is counted in Microbia counter.

Test [6] addresses T4, Alpha-2B adrenergic receptor (Homo sapiens, UniProt P18089).
T4 sequence (P18089 whole entry): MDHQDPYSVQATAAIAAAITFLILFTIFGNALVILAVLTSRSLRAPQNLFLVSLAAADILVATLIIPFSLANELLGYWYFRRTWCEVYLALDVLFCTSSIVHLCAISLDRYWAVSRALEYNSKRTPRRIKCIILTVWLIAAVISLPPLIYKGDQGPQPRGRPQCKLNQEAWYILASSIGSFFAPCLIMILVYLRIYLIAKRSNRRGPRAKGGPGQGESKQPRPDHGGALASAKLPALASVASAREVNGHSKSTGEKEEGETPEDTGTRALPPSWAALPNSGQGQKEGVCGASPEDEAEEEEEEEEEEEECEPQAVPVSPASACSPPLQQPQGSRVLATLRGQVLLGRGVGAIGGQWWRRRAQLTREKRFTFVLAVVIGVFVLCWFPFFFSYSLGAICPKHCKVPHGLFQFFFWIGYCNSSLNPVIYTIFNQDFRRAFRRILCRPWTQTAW
In words: PDSP Secondary Binding target: ADRA2B - Compounds are tested at 10 uM concentration, plate are incubated at room temperature in the dark for 90 minutes. Reaction are stopped by vacuum filtration onto 0.3% polyethyleneimine soaked filter mats using Filtermate harvester. Scintillation cocktail is then melted onto microwave-dried filters on a hot plate and the radio activity is counted in Microbia counter.

For test [7], the target named is T5, Alpha-1B adrenergic receptor (Homo sapiens, UniProt P35368).
T5 sequence (P35368 whole entry): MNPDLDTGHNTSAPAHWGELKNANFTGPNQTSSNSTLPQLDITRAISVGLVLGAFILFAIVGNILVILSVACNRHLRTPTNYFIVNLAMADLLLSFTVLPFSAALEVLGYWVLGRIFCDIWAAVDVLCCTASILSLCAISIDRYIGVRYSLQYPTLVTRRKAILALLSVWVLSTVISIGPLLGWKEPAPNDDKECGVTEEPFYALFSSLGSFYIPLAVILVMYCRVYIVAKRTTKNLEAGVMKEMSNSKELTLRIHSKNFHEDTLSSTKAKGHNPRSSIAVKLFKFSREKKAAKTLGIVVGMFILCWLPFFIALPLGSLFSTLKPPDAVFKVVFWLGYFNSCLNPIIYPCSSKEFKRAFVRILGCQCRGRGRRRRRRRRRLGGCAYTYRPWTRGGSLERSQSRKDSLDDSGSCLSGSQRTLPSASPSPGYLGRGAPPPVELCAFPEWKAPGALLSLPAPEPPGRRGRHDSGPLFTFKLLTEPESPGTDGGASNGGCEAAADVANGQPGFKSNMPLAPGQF
In words: PDSP Secondary Binding target: ADRA1B - Compounds are tested at 10 uM concentration, plate are incubated at room temperature in the dark for 90 minutes. Reaction are stopped by vacuum filtration onto 0.3% polyethyleneimine soaked filter mats using Filtermate harvester. Scintillation cocktail is then melted onto microwave-dried filters on a hot plate and the radio activity is counted in Microbia counter.

The target in test [8] is T6, Alpha-1A adrenergic receptor (Homo sapiens, UniProt P35348).
T6 sequence (P35348 whole entry): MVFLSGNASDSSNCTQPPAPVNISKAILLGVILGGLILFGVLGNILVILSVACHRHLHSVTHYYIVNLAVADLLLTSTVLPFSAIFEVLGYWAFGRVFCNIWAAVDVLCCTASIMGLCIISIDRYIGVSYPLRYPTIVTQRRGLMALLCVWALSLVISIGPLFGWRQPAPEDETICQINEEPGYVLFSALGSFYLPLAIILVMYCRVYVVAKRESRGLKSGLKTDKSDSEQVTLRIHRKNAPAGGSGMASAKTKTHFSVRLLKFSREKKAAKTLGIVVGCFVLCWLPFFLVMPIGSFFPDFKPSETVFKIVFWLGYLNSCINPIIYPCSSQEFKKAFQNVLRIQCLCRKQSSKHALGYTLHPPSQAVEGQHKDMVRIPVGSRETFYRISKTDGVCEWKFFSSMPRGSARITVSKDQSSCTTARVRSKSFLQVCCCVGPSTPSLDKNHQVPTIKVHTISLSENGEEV
In words: PDSP Secondary Binding target: ADRA1A - Compounds are tested at 10 uM concentration, plate are incubated at room temperature in the dark for 90 minutes. Reaction are stopped by vacuum filtration onto 0.3% polyethyleneimine soaked filter mats using Filtermate harvester. Scintillation cocktail is then melted onto microwave-dried filters on a hot plate and the radio activity is counted in Microbia counter.

Test [9] has as its target 5-hydroxytryptamine receptor 1B (Homo sapiens, UniProt P28222). In words: PDSP Secondary Binding target: HTR1B - Compounds are tested at 10 uM concentration, plate are incubated at room temperature in the dark for 90 minutes. Reaction are stopped by vacuum filtration onto 0.3% polyethyleneimine soaked filter mats using Filtermate harvester. Scintillation cocktail is then melted onto microwave-dried filters on a hot plate and the radio activity is counted in Microbia counter.

In the next test the target is D(1B) dopamine receptor (Homo sapiens, UniProt P21918). In words: PDSP Secondary Binding target: DRD5 - Compounds are tested at 10 uM concentration, plate are incubated at room temperature in the dark for 90 minutes. Reaction are stopped by vacuum filtration onto 0.3% polyethyleneimine soaked filter mats using Filtermate harvester. Scintillation cocktail is then melted onto microwave-dried filters on a hot plate and the radio activity is counted in Microbia counter.

Test [10] concerns the target Sodium-dependent dopamine transporter (Homo sapiens, UniProt Q01959). The test is described as follows: PDSP Secondary Binding target: SLC6A3 - Compounds are tested at 10 uM concentration, plate are incubated at room temperature in the dark for 90 minutes. Reaction are stopped by vacuum filtration onto 0.3% polyethyleneimine soaked filter mats using Filtermate harvester. Scintillation cocktail is then melted onto microwave-dried filters on a hot plate and the radio activity is counted in Microbia counter.

Test [11] concerns the target Sigma intracellular receptor 2 (Homo sapiens, UniProt Q5BJF2). In words: PDSP Secondary Binding target: TMEM97 - Compounds are tested at 10 uM concentration, plate are incubated at room temperature in the dark for 90 minutes. Reaction are stopped by vacuum filtration onto 0.3% polyethyleneimine soaked filter mats using Filtermate harvester. Scintillation cocktail is then melted onto microwave-dried filters on a hot plate and the radio activity is counted in Microbia counter.

Test [12] deals with 5-hydroxytryptamine receptor 5A (Homo sapiens, UniProt P47898). In words: PDSP Secondary Binding target: HTR5A - Compounds are tested at 10 uM concentration, plate are incubated at room temperature in the dark for 90 minutes. Reaction are stopped by vacuum filtration onto 0.3% polyethyleneimine soaked filter mats using Filtermate harvester. Scintillation cocktail is then melted onto microwave-dried filters on a hot plate and the radio activity is counted in Microbia counter.

The target in test [13] is 5-hydroxytryptamine receptor 1D (Homo sapiens, UniProt P28221). In words: PDSP Secondary Binding target: HTR1D - Compounds are tested at 10 uM concentration, plate are incubated at room temperature in the dark for 90 minutes. Reaction are stopped by vacuum filtration onto 0.3% polyethyleneimine soaked filter mats using Filtermate harvester. Scintillation cocktail is then melted onto microwave-dried filters on a hot plate and the radio activity is counted in Microbia counter.

These results are taken from ChEMBL document CHEMBL5442175, “EUbOPEN Chemogenomics Library - PDSP Secondary Binding” (2024).

Structures can show the parent of a compound that is named as a salt.

Sequence of 5-hydroxytryptamine receptor 7 (P34969 whole entry): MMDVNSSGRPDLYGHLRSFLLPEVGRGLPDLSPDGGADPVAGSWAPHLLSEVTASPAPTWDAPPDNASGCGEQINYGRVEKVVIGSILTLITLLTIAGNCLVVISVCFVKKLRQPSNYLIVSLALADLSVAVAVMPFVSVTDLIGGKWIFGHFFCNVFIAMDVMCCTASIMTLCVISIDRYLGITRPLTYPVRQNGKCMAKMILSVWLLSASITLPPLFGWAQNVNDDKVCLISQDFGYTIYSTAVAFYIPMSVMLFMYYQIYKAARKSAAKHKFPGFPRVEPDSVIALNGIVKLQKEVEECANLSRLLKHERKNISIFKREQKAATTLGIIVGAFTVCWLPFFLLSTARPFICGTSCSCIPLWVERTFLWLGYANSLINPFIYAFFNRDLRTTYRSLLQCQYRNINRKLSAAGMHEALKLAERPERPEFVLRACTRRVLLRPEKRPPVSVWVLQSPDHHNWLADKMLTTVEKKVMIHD
Sequence of Sodium-dependent noradrenaline transporter (P23975 whole entry): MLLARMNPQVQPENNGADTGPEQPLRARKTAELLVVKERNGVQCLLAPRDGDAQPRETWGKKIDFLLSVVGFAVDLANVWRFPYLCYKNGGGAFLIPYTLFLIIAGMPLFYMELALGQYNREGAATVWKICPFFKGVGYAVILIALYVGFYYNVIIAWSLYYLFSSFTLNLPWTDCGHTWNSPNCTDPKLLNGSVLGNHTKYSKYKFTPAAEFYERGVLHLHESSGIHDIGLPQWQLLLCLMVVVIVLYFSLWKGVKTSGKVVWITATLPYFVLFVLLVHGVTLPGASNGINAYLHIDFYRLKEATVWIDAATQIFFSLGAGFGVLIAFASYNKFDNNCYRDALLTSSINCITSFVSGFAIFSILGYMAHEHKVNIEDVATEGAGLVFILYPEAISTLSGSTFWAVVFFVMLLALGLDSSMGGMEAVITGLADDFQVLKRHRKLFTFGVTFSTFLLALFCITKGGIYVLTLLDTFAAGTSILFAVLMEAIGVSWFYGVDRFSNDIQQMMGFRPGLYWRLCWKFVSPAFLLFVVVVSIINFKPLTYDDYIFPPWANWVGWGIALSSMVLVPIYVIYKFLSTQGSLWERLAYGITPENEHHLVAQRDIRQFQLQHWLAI
Sequence of 5-hydroxytryptamine receptor 1D (P28221 whole entry): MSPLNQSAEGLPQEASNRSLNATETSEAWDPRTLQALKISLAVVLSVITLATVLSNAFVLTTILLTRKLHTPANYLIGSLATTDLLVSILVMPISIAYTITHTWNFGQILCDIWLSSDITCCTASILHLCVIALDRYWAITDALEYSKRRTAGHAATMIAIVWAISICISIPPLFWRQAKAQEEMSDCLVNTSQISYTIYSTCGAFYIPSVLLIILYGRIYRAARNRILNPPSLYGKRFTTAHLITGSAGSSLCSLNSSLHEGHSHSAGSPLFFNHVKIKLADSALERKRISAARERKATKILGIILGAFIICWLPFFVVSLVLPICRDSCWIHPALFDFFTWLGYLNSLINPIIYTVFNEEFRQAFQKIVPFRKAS
Sequence of 5-hydroxytryptamine receptor 5A (P47898 whole entry): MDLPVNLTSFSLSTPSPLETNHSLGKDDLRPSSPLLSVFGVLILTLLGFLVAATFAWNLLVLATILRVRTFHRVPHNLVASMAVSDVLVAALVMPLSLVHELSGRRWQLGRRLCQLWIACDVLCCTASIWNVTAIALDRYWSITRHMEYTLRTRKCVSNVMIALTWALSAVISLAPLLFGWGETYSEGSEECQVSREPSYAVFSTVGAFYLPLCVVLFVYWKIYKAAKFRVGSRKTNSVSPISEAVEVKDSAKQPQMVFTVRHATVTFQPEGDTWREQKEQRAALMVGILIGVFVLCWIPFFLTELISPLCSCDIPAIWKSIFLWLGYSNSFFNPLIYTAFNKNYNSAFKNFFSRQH
Sequence of Translocator protein (P30536 whole entry): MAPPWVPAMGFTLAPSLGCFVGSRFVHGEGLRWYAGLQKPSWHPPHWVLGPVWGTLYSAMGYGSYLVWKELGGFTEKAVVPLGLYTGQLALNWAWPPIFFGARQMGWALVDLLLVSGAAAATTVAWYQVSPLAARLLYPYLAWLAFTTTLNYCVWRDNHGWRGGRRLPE
Sequence of 5-hydroxytryptamine receptor 1B (P28222 whole entry): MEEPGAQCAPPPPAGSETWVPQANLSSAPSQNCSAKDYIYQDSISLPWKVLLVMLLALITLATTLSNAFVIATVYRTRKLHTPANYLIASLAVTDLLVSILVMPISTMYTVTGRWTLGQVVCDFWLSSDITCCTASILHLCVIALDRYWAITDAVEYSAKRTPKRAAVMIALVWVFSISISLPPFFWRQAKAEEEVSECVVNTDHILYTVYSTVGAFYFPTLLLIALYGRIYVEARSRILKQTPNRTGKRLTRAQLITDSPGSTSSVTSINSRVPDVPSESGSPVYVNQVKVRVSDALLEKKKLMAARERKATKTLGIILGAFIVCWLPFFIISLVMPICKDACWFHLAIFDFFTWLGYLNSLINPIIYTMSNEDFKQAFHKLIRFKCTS
Sequence of D(1B) dopamine receptor (P21918 whole entry): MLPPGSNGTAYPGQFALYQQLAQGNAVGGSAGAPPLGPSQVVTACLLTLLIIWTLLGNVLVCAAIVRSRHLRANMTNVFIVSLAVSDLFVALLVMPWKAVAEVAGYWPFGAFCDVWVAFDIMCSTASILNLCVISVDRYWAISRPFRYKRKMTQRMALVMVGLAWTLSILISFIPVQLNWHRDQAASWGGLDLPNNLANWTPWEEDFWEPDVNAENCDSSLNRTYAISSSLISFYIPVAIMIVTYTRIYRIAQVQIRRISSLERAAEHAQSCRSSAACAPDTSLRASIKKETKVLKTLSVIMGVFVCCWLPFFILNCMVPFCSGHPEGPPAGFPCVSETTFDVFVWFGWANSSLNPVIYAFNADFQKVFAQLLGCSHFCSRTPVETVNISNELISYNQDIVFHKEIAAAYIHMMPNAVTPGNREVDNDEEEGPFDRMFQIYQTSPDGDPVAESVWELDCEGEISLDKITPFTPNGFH
Sequence of Sodium-dependent dopamine transporter (Q01959 whole entry): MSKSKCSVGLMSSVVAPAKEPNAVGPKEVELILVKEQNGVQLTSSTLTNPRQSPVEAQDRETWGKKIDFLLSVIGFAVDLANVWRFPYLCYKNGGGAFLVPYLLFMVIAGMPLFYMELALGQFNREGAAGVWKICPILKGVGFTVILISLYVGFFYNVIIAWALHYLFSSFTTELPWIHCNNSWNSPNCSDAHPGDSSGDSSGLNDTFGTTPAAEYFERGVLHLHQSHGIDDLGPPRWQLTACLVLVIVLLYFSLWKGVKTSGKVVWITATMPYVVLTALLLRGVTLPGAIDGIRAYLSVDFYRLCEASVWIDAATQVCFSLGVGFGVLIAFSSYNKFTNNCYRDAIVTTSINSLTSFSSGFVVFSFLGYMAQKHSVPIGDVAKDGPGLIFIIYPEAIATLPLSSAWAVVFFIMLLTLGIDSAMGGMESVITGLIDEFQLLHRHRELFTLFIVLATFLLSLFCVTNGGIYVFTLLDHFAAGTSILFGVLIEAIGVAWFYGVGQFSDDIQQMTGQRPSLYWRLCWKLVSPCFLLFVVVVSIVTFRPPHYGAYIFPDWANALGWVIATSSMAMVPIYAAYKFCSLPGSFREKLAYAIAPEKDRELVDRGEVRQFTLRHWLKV
Sequence of Sigma intracellular receptor 2 (Q5BJF2 whole entry): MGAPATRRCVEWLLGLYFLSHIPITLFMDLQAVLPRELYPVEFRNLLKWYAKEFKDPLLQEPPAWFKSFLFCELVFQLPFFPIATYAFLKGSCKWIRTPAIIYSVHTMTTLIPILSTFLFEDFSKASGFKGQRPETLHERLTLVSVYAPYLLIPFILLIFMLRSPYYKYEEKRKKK

By Ki is commonly meant a dissociation constant, usually derived from enzyme kinetics or from competition with a known ligand. With `COc1ccnc(N2CCC3(CCCN(Cc4c[nH]c5ccccc45)C3=O)CC2)n1`, the Ki in [1] was 3260 nM; at Translocator protein, 803 nM; in [2], greater than 10000 nM.

On to `Cc1cccc([C@H](C)c2cnc[nH]2)c1C` [DEXMEDETOMIDINE HYDROCHLORIDE], for which the Ki in test [3] is 3260 nM; in [4], 39.4 nM; in test [5], 923 nM; in test [6], 12.1 nM; in [7], 2980 nM; in test [8], 749 nM.

Turning to `O=C(O)c1cc(-c2ccc(C3CCNCC3)cc2)c2ccc(-c3ccc(C(F)(F)F)cc3)cc2c1`, the Ki in test [9] was 1160 nM; in test [3], 1850 nM; in test [5] it was 3300 nM; in test [1], 2540 nM; on D(1B) dopamine receptor it was 1050 nM; in [10], 1220 nM. Moreover, the Ki in test [11] was 1060 nM; in test [12], 2400 nM; in [13], 1190 nM; in test [2], 2190 nM.
